In one experiment the target is T1, EGFR (T790M/L858R) (Homo sapiens, UniProt P00533, L858R/T790M).
T1 construct: GST; purchased Proqinase
As to the kind of experiment: EGFR L858R/T790M enzyme inhibition assay (HTRF). To be noted: 5 μM ATP, 60 min, read-out: EGFR_L858R T790M_IC50_nM. The experiment is classed as biochemical. The procedure: Example 2: EGFR L858R & Del19/T790M Assay Protocol (to Find the IC50 for the Compounds Using HTRF Method)
Reagents for Enzyme Assay:
• 1. Enzyme Assay Buffer: 60 mM HEPES (pH 7.4), 50 mM NaCl, 20 mM MgCl2, 5 mM MnCl2, filtered using 0.2 μm pore size, stored at 4° C. • Supplements (added fresh to the enzyme buffer): 1M DTT stock was made, 5% BSA stock and 0.1M Na3OV4 stored at 4° C. Enzyme assay buffer 50 mL, 1 M DTT 100 μL, 5% BSA 500 μL, 0.1 M Na3OV4 50 μL. • 2. GST-hEGFR (L858R), active: EGFR (T790M/L858R), active (Proqinase), 3.6 μM stock; 2.5 nM in final assay. • 3. Gastrin Precusor-Biotinylated: Gastrin precursor (Tyr87) biotinylated peptide, EEAY*GWM, Cell Signaling Tech 1310, Lot-7, Want final 0.5 μM in assay. • 4. ATP: 10 mM stock in 100 μL Enzyme assay buffer pH 7.4 prepared freshly, want 5 μM in final assay. • 5. Test compounds: Powders were dissolved in 100% DMSO and made up to a final stock concentration of 10 mM (volume in μL to add for 10 mM=mg powder X 10^5/MW). Final compound concentration in the assay plate started at 10 μM.
• 1. HTRF buffer: 50 mM Tris —HCl, pH-7.5, 100 mM NaCl, 0.1% BSA, 0.05% Tween20, 0.5 mM EDTA, filtered using 0.2 μm pore size, stored at 4° C. • Phycolink® Streptavidin-Allophycocyanin (SA-APC) Prozyme, Cat. #PJ25S, Lot #896 085, 2.06 mg/mL, APC concentration is 11.6 μM, streptavidin concentration is 15.5 μM. Want 12 nM final in assay (based on streptavidin concentration). • 2. (Europium) Eu-W1024 Anti-phosphotyrosine (PT-66) Antibody: Perkin Elmer (Product Number: AD0068), monoclonal IgG1 that recognizes phosphotyrosine peptide 100 μg/ml stock. Want 0.1 nM final in assay.
• 1. The compound dilution was made by TECAN as per the above scheme. • 2. 16 μL of diluted compound was added to the assay plate by using TECAN. • 3. 10 μL of enzyme mix was added to each well except mins. • 4. 20 μL of substrate and ATP mix were added into each well of the assay plate, manually. • 5. The plate was incubated on a laboratory shaker at room temperature for 60 min. • 6. Meanwhile, the HTRF mix was prepared and 75 μL was added to the HTRF plate. • 7. When the incubation was over, 10 μL of the reaction mixture was transferred to the HTRF assay plate and incubated on a laboratory shaker for 30 min at room temperature. • 8. The reading was taken in Pherastar (ext 337 nm, Em 665 & 620 nm). • 9. The results were analyzed using Graphpad prism after calculation of the z factor, signal window and % inhibition to get the IC50.
A general note: Time-resolved FRET reads energy transfer from a long-lived donor to a nearby acceptor.

In experiment [1] the test system is H1975 cells (L858R_T790M mutant). Put plainly: H1975 proliferation assay. In kind it is cell-based. To be noted: Homo sapiens, NCI-H1975; read-out: Proliferation_Assay H1975 cells-EC50_nM L858R_T790M_mutant.
In the next experiment the test system is A431 cells. As to the kind of experiment: Cellular proliferation (Alamar Blue) assay, A431. In kind it is cell-based. To be noted: Homo sapiens, A-431; A431 cells, 72 hr, Alamar Blue; read-out: A431 IC50. Put shortly:
(§1)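 Seventy-two-hour growth assay with 3-fold compound titration (final 10–0.0005 μM) and Alamar Blue fluorescence end point, ex 540/em 590 nm.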

Experiment [2] addresses EGFR (A767_dupASV) expressing Ba/F3 stable cell line (Homo sapiens, UniProt P00533, DUP767-769, cells depend on it). Put plainly: Cellular proliferation (Alamar Blue) assay, EGFR A767_dupASV Ba/F3. In kind it is cell-based. To be noted: EGFR A767_dupASV Ba/F3, 72 hr, read-out: A767 IC50. Put shortly:
as §1
(Alamar Blue is a resazurin reagent that responds to reducing activity.)

Experiment [3] addresses EGFR(D770_N771insSVD) expressing Ba/F3 stable cell line (Homo sapiens, UniProt P00533, DUP768-770, cells depend on it). Put plainly: Cellular proliferation (Alamar Blue) assay, EGFR D770_N771insSVD Ba/F3. In kind it is cell-based. To be noted: EGFR D770_N771insSVD Ba/F3, 72 hr, read-out: D770 IC50. A digest of the protocol: as §1

T1 sequence (P00533 25-1210 T790M/L858R): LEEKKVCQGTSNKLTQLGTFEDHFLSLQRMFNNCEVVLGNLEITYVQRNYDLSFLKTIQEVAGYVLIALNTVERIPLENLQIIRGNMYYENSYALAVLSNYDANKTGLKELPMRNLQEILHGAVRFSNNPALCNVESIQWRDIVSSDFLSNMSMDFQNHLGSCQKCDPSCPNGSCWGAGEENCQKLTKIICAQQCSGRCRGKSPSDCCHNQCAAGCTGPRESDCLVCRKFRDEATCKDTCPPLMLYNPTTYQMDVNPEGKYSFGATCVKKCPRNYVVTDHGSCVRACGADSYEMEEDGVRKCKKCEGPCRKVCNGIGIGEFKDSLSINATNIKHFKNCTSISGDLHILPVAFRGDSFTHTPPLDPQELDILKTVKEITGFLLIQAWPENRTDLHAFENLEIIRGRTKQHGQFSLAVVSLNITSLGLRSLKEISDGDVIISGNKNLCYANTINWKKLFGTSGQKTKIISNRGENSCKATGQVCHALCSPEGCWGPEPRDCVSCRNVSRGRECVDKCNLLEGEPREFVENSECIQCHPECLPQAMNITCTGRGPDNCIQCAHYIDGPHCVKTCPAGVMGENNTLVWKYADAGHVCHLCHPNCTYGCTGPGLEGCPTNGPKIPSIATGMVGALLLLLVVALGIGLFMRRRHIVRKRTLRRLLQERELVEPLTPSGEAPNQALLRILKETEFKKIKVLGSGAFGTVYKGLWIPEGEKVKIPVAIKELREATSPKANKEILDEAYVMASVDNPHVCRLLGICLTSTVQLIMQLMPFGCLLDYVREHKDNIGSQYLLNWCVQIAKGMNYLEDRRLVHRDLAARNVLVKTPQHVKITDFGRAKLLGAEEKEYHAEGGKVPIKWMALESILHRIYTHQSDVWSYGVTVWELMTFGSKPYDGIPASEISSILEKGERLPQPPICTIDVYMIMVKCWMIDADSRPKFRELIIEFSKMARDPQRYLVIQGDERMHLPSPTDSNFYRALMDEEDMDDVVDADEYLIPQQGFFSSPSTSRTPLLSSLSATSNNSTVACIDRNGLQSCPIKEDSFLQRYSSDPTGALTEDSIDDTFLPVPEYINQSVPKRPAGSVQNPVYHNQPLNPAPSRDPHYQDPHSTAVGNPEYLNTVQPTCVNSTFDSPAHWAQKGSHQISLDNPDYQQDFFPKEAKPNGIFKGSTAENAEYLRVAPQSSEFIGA
EGFR (A767_dupASV) expressing Ba/F3 stable cell line, sequence (P00533 with tags, fused parts or gaps DUP767-769): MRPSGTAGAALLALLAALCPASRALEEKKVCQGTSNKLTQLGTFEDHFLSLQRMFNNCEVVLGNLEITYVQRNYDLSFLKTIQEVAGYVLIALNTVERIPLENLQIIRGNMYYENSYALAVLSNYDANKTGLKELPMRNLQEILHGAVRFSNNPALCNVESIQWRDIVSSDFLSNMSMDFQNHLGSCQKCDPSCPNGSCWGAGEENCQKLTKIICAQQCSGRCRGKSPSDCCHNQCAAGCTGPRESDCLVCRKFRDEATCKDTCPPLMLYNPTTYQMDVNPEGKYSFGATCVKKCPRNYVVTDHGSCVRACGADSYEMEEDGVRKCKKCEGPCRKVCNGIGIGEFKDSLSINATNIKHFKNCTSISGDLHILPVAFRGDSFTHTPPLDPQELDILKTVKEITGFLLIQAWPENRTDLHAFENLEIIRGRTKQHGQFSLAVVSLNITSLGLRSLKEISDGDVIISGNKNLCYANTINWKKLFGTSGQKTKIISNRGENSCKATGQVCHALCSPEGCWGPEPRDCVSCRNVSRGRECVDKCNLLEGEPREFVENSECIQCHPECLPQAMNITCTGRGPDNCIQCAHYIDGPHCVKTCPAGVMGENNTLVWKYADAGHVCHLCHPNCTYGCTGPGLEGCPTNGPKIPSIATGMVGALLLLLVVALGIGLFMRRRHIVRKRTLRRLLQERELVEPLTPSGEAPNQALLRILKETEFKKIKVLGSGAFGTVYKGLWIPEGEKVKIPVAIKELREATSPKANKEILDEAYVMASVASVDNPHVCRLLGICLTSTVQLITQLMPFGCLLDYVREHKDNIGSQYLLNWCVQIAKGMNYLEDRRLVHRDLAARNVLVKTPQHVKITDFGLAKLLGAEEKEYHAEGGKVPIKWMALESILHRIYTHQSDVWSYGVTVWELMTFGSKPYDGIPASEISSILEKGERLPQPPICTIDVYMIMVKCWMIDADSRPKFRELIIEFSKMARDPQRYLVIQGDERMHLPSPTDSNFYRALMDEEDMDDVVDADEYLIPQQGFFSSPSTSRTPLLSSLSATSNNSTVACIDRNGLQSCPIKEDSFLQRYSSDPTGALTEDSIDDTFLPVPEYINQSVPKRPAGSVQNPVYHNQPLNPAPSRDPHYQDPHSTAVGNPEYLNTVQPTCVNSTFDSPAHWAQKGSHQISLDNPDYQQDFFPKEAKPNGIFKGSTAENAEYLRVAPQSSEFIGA
EGFR(D770_N771insSVD) expressing Ba/F3 stable cell line, sequence (P00533 with tags, fused parts or gaps DUP768-770): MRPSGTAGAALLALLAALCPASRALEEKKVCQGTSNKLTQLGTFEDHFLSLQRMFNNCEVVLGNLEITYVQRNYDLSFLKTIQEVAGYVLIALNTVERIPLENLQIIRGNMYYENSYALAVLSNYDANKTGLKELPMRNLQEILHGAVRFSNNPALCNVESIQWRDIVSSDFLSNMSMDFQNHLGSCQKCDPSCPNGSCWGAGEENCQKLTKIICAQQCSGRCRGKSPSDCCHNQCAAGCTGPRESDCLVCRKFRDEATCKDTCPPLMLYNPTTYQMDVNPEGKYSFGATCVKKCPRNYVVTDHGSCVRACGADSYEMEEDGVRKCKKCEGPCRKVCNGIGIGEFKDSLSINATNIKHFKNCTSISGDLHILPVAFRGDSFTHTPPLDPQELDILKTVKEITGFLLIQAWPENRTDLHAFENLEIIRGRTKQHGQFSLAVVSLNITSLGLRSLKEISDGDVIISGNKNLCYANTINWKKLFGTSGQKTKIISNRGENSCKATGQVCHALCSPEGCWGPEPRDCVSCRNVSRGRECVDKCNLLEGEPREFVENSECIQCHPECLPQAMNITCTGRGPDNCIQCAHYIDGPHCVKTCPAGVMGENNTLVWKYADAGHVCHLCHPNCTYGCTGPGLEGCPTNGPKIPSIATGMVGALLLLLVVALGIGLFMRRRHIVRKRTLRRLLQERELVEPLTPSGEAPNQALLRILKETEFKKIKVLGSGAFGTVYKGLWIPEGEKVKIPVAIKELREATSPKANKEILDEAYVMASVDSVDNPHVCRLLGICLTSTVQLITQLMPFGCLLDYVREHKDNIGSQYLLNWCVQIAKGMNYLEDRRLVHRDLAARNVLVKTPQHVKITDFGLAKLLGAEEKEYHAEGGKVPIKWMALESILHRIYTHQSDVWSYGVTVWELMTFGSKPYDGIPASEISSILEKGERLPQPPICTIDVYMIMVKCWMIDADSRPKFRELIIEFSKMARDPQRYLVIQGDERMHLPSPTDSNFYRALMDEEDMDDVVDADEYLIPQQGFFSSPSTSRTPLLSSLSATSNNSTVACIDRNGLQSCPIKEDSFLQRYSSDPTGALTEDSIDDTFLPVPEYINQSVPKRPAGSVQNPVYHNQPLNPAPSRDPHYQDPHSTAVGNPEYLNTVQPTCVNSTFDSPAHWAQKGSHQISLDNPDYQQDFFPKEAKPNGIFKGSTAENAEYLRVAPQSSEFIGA

As for `Cc1nn(C)cc1Nc1ncc2c(n1)N(c1cccc(NC(=O)/C=C/CN(C)C)c1)C(=O)N(Cc1ccccc1)C2` [Compound 23, (E)-N-(3-(3-benzyl-7-((1,3-dimethyl-1H-pyrazol-4-yl)amino)-2-oxo-3,4-dihydropyrimido[4,5-d]pyrimidin-1(2H)-yl)phenyl)-4-(dimethylamino)but-2-enamide], the IC50 at EGFR (T790M/L858R) amounted to 3 nM; in the experiment with A431 cells, 18 nM. Also, the EC50 in experiment [1] was 6.4 nM. For the same compound, the GI50 in experiment [2] came out at 124 nM; in experiment [3] it was 299 nM.

With `Cc1cnc(Nc2ncc3c(n2)N(c2cccc(NC(=O)/C=C/CN(C)C)c2)C(=O)N(Cc2ccccc2)C3)s1` [Compound 19, (E)-N-(3-(3-benzyl-7-((5-methylthiazol-2-yl)amino)-2-oxo-3,4-dihydropyrimido[4,5-d]pyrimidin-1(2H)-yl)phenyl)-4-(dimethylamino)but-2-enamide], the IC50 on EGFR (T790M/L858R) worked out at 6 nM. Further, the EC50 in experiment [1] stood at 16 nM.

Take `Cc1csc(Nc2ncc3c(n2)N(C2CCCC(NC(=O)/C=C/CN(C)C)C2)C(=O)N(Cc2ccccc2)C3)n1` (stereo not shown) [Compound 29, (E)-N-(3-(3-benzyl-7-((4-methylthiazol-2-yl)amino)-2-oxo-3,4-dihydropyrimido[4,5-d]pyrimidin-1(2H)-yl)cyclohexyl)-4-(dimethylamino)but-2-enamide]: the values for the IC50 at EGFR (T790M/L858R) and in the experiment on A431 cells were 660 nM and 4090 nM, respectively. For the same compound, the EC50 in experiment [1] came to 1080 nM. Besides, the GI50 is 2600 nM in experiment [2] and 431 nM in experiment [3].

With `CC(c1ccccc1)N1Cc2cnc(Nc3cnn(C)c3)nc2N(c2cccc(NC(=O)/C=C/CN(C)C)c2)C1=O` (racemic) [Compound 10, (E)-4-(dimethylamino)-N-(3-(7-((1-methyl-1H-pyrazol-4-yl)amino)-2-oxo-3-(1-phenylethyl)-3,4-dihydropyrimido[4,5-d]pyrimidin-1(2H)-yl)phenyl)but-2-enamide], the IC50 at EGFR (T790M/L858R) was found to be 4 nM; in the experiment with A431 cells, 638 nM. In addition, the EC50 in experiment [1] turned out to be 4.5 nM. The GI50 turned out to be 105 nM in experiment [2] and 108 nM in experiment [3].

`C=CC(=O)Nc1cccc(N2C(=O)N(Cc3ccccc3)Cc3cnc(Nc4cnn(C)c4C)nc32)c1` [Compound 4, N-(3-(3-benzyl-7-((1,5-dimethyl-1H-pyrazol-4-yl)amino)-2-oxo-3,4-dihydropyrimido[4,5-d]pyrimidin-1(2H)-yl)phenyl)acrylamide]: the IC50 at EGFR (T790M/L858R) stood at 2.4 nM; in the experiment on A431 cells, 78 nM. Also, the EC50 in experiment [1] was 4.9 nM. In addition, the GI50 in experiment [2] amounted to 57 nM; in experiment [3], 40 nM.

Consider `COCCn1cc(Nc2ncc3c(n2)N(c2cccc(NC(=O)/C=C/CN(C)C)c2)C(=O)N(Cc2ccccc2)C3)cn1` [Compound 16, (E)-N-(3-(3-benzyl-7-((1-(2-methoxyethyl)-1H-pyrazol-4-yl)amino)-2-oxo-3,4-dihydropyrimido[4,5-d]pyrimidin-1(2H)-yl)phenyl)-4-(dimethylamino)but-2-enamide], for which the IC50 worked out at 1 nM at EGFR (T790M/L858R) and 371 nM in the experiment on A431 cells. In addition, the EC50 in experiment [1] was found to be 15.7 nM. Besides, the results for the GI50 in experiment [2] and in experiment [3] were 1170 nM and 2310 nM, respectively.

As for `Cc1cnc(Nc2ncc3c(n2)N(C2CCCC(NC(=O)/C=C/CN(C)C)C2)C(=O)N(Cc2ccccc2)C3)s1` (stereo not shown) [Compound 27, (E)-N-(3-(3-benzyl-7-((5-methylthiazol-2-yl)amino)-2-oxo-3,4-dihydropyrimido[4,5-d]pyrimidin-1(2H)-yl)cyclohexyl)-4-(dimethylamino)but-2-enamide], the IC50 at EGFR (T790M/L858R) turned out to be 303 nM; with A431 cells, 4400 nM. In addition, the EC50 in experiment [1] was ≥ 10000 nM. In addition, the GI50 was 9190 nM in experiment [2] and ≥ 10000 nM in experiment [3].

As for `C=CC(=O)Nc1cccc(N2C(=O)N(c3ccc(F)cc3)Cc3cnc(Nc4cnn(C)c4)nc32)c1` [Compound 17, N-(3-(3-(4-fluorophenyl)-7-((1-methyl-1H-pyrazol-4-yl)amino)-2-oxo-3,4-dihydropyrimido[4,5-d]pyrimidin-1(2H)-yl)phenyl)acrylamide], at EGFR (T790M/L858R), the IC50 came to 0.5 nM. Besides, in experiment [1], the EC50 is 0.7 nM.

Turning to `CN(C)C/C=C/C(=O)Nc1cccc(N2C(=O)N(Cc3ccccc3)Cc3cnc(Nc4ccc5c(c4)cc(C#N)n5C)nc32)c1` [Compound 44, (E)-N-(3-(3-benzyl-7-((2-cyano-1-methyl-1H-indol-5-yl)amino)-2-oxo-3,4-dihydropyrimido[4,5-d]pyrimidin-1(2H)-yl)phenyl)-4-(dimethylamino)but-2-enamide], the IC50 was 9 nM at EGFR (T790M/L858R) and 56 nM with A431 cells. The EC50 in experiment [1] was 37.6 nM. In addition, the GI50 in experiment [2] is 123 nM; in experiment [3], 106 nM.

Regarding `C=CC(=O)NC1CCCC(N2C(=O)N(Cc3ccccc3)Cc3cnc(Nc4ncc(C)s4)nc32)C1` (stereo not shown) [Compound 30, N-(3-(3-benzyl-7-((5-methylthiazol-2-yl)amino)-2-oxo-3,4-dihydropyrimido[4,5-d]pyrimidin-1(2H)-yl)cyclohexyl)acrylamide], the figures for the IC50 at EGFR (T790M/L858R) and in the experiment on A431 cells were 164 nM and 920 nM, respectively. Further, the EC50 in experiment [1] worked out at 413 nM. The GI50 in experiment [2] was 2810 nM; in experiment [3], 2570 nM.

Regarding `Cn1cc(Nc2ncc3c(n2)N(c2cccc(NC(=O)/C=C/Cl)c2)C(=O)N(Cc2ccccc2)C3)cn1` [Compound 50, (E)-N-(3-(3-benzyl-7-((1-methyl-1H-pyrazol-4-yl)amino)-2-oxo-3,4-dihydropyrimido[4,5-d]pyrimidin-1(2H)-yl)phenyl)-3-chloroacrylamide], the IC50 at EGFR (T790M/L858R) was 0.4 nM; with A431 cells, 5380 nM. In addition, the EC50 in experiment [1] was found to be 4200 nM. Moreover, the GI50 amounted to 1350 nM in experiment [2] and 8720 nM in experiment [3].

As to `C=CC(=O)Nc1cccc(N2C(=O)N(Cc3ccccc3)Cc3cnc(Nc4cnn(C5CC5)c4)nc32)c1` [Compound 5, N-(3-(3-benzyl-7-((1-cyclopropyl-1H-pyrazol-4-yl)amino)-2-oxo-3,4-dihydropyrimido[4,5-d]pyrimidin-1(2H)-yl)phenyl)acrylamide], the IC50 at EGFR (T790M/L858R) was determined as 1 nM. For the same compound, the EC50 in experiment [1] is 5.7 nM.

For the compound `CN(C)C/C=C/C(=O)Nc1cccc(N2C(=S)N(c3ccccc3)Cc3cnc(Nc4cn(C)nc4Cl)nc32)c1` [Compound 51, (E)-N-(3-(7-((3-chloro-1-methyl-1H-pyrazol-4-yl)amino)-3-phenyl-2-thioxo-3,4-dihydropyrimido[4,5-d]pyrimidin-1(2H)-yl)phenyl)-4-(dimethylamino)but-2-enamide], the IC50 on EGFR (T790M/L858R) amounted to 8 nM. In addition, in experiment [1], the EC50 was 9.8 nM.

Regarding `CN(C)C/C=C/C(=O)Nc1cccc(N2C(=O)N(Cc3ccccc3)Cc3cnc(Nc4cnn(C5CC5)c4)nc32)c1` [Compound 7, (E)-N-(3-(3-benzyl-7-((1-cyclopropyl-1H-pyrazol-4-yl)amino)-2-oxo-3,4-dihydropyrimido[4,5-d]pyrimidin-1(2H)-yl)phenyl)-4-(dimethylamino)but-2-enamide], the IC50 on EGFR (T790M/L858R) came out at 6 nM. In addition, the EC50 in experiment [1] is 9.3 nM.
